Results as given in patent US20260297094A1, “Tetracyclic Compounds as SMARCA2 and/or SMARCA4 Degraders” (Aurigene Oncology Limited, priority 2023, published 2026).
Counter-ions that a name gives are not always drawn.

Columns and labels:
Assay type in all cases: cell-based
SK-MEL-5 cells = assay: Anti proliferative activity in SK-MEL-5 cells by Cell Titer Glo (Promega) assay; details: Homo sapiens, retreatment on Day 4, terminated on day 8, CellTiter-Glo
How it was run: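 SK-MEL-5 cells treated with 9-point 3-fold dilution series, re-dosed on day 4, read on day 8 by CellTiter-Glo luminescence. EC50 derived from percent proliferation inhibition versus concentration.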

SMARCA2 = target: T1, SMARCA2 (Homo sapiens, UniProt P51531); assay: SMARCA2 degradation in MV-4-11 cells by Western blot; details: MV4-11, 16 h, at 100 nM, vs DMSO, read-out: Percent degradation SMARCA2
T1 construct: endogenous in cells; host or cells: MV-4-11 (CRL-9591)
Experimental: (§1) Example-P3: Determination of SMARCA2 and SMARCA4 Degradation in MV-4-11 Cells by Western Blot
(§2) MV-4-11 (CRL-9591™) cells were plated in 6 well plates using complete Iscove's Modified Dulbecco's Medium. On the third day, compounds of present invention were added to cells from 10 mM stocks made in DMSO (Sigma Cat no. D2650). Each concentration of compound was tested with DMSO not exceeding final percentage of 0.1 in the cells. Cells were incubated with the compound for 16 hours followed by harvesting with 1×RIPA lysis buffer (Thermo Fischer, catalogue number #89900) containing protease inhibitor cocktail (Sigma catalogue number #P-8340). Equal amount of protein was loaded on SDS PAGE gel for electrophoresis. Western blot was carried out for detection of either SMARCA2 (Cell signalling technologies, catalogue number #11966) or SMARCA4 antibody (Cell signalling technologies, catalogue number #52251). Beta-Tubulin antibody (Cell signalling technologies, catalogue number #86298) was used as loading control. Percentage of SMARCA2 or SMARCA4 degradation was calculated using formula % Degradation=100−(normalized band intensity in treated sample/normalized band intensity in DMSO sample)*100. Here, “ND” refers to Not determined.

SMARCA4 = target: T2, SMARCA4 (Homo sapiens, UniProt P51532); assay: SMARCA4 degradation in MV-4-11 cells by Western blot; details: MV4-11, at 100 nM, 16 hours, vs DMSO, read-out: Percent degradation SMARCA4
T2 construct: endogenous in cells; host or cells: MV-4-11 (CRL-9591)
Experimental: as §1, §2

MV-4-11 cells = assay: Anti proliferative activity in MV-4-11 cells by Cell Titer Glo (Promega) assay; details: Homo sapiens, MV4-11, 72 h, 3 days, CellTiter-Glo
How it was run: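 MV-4-11 cells in complete DMEM were exposed to compound for 3 days in triplicate, final DMSO ≤0.3%. Viability was read by CellTiter-Glo ATP luminescence, and % inhibition was taken relative to the DMSO control. EC50 was derived from concentration-response curves.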

T1 sequence (P51531 whole entry): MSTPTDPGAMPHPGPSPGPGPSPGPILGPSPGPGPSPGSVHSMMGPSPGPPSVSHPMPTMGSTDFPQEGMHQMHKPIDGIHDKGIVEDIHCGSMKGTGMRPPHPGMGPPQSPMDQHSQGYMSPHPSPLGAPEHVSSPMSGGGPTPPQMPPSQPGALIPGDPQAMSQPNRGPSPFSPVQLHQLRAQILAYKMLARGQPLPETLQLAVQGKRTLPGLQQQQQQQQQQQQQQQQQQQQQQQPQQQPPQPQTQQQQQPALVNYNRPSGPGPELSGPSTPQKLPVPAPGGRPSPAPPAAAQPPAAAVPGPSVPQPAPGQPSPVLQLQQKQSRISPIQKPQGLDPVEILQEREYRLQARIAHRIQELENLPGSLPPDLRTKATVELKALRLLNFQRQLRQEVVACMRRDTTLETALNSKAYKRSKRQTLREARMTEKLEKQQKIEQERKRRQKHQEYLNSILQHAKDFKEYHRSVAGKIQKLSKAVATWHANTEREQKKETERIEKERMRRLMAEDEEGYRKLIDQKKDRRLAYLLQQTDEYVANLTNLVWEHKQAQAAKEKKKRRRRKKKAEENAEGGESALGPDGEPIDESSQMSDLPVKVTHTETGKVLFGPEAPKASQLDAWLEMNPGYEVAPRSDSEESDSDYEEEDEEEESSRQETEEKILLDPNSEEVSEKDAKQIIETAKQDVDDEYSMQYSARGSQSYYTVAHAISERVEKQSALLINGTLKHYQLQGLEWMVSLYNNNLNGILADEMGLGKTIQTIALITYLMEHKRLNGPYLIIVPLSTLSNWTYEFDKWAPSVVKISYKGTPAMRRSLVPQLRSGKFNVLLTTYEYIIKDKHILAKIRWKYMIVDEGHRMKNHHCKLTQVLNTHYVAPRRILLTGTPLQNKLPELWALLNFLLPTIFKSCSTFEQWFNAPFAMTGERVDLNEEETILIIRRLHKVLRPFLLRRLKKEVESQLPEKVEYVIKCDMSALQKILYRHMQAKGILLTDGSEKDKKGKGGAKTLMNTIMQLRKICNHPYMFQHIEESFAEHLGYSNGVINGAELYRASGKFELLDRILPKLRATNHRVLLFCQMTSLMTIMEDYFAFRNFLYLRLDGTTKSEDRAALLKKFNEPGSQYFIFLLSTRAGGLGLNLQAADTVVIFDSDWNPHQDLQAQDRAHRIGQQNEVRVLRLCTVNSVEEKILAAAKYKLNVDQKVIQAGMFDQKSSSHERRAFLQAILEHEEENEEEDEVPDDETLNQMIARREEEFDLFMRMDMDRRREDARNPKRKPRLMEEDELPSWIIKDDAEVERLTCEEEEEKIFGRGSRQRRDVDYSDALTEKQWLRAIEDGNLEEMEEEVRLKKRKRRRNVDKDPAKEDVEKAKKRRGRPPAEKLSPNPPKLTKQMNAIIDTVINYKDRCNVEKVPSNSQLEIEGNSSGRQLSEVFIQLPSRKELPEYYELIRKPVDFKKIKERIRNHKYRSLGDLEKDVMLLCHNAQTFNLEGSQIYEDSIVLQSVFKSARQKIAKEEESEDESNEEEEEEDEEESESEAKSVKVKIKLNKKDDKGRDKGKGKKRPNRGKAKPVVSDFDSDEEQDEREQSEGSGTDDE
T2 sequence (P51532 whole entry): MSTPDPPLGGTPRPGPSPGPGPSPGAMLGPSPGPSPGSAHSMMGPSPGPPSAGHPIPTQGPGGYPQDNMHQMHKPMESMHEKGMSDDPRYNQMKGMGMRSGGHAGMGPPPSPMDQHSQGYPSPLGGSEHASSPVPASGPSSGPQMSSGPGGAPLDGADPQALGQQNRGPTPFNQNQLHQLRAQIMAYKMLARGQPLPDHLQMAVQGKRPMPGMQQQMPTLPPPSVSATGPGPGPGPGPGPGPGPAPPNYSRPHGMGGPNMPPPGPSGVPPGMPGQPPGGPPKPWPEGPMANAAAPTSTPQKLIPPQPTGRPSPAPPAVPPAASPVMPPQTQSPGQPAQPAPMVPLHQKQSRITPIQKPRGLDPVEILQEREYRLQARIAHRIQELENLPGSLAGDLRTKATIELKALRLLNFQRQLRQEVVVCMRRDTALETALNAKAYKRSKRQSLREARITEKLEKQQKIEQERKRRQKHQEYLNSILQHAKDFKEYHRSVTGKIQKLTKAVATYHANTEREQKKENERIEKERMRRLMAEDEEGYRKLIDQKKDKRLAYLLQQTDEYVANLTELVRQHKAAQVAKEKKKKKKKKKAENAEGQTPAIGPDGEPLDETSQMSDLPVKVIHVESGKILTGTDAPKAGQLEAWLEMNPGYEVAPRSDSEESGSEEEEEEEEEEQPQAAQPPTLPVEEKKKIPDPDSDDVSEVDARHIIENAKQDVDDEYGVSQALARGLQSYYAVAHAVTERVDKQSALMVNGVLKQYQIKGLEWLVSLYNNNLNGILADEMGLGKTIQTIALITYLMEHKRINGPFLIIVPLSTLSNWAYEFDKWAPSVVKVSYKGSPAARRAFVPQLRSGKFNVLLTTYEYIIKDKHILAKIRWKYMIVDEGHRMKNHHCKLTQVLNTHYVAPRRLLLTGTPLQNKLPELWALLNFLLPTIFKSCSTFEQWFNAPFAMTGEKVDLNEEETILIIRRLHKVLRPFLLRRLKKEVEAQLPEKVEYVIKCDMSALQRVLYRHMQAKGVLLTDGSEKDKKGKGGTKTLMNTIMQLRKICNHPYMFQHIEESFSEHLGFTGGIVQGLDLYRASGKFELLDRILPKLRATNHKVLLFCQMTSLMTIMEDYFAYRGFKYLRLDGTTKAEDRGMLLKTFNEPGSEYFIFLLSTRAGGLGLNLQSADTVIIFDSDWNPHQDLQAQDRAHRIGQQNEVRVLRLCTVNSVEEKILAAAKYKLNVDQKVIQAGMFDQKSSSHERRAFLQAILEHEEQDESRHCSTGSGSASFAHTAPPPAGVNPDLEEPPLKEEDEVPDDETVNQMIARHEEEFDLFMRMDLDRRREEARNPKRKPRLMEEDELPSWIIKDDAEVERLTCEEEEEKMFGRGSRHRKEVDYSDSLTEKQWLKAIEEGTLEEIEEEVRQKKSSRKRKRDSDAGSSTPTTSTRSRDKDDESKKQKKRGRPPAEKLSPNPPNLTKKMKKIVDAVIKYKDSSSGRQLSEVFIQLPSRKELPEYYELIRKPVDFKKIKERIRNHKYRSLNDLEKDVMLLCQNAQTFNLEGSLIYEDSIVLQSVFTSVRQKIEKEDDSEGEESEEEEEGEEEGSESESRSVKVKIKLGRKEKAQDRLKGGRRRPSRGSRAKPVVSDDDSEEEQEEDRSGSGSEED

EC50 (SK-MEL-5 cells) [nM] | inhibition at 0.1 µM (SMARCA2) [%] | inhibition at 0.1 µM (SMARCA4) [%] | EC50 (MV-4-11 cells) [nM] | SMILES
< 10 | 98 | 91 | > 100 | O=C1CCC(Nc2ccc(N3CCN(C4CCN(c5ccc6c(c5)n(C5CCCC5)c5nc(=O)c7c(Cl)cccc7n65)CC4)CC3)c(F)c2)C(=O)N1 (centres unmarked) [Compound 35, 3-((4-(4-(1-(4-chloro-7-cyclopentyl-5-oxo-5,7-dihydrobenzo[4,5]imidazo[1,2-a]quinazolin-9-yl)piperidin-4-yl)piperazin-1-y1)-3-fluorophenyl)amino)piperidine-2,6-dione-TFA salt]
< 10 | 67 | 33 | 10 to 100 | Nc1cccc2c1c(=O)nc1n(C3CCCC3)c3cc(N4CCC(N5CCC(c6ccc(C7CCC(=O)NC7=O)cc6)CC5)CC4)ccc3n21 (centres unmarked) [Compound 25, 3-(4-(1′-(4-amino-7-cyclopentyl-5-oxo-5,7-dihydrobenzo[4,5]imidazo[1,2-a]quinazolin-9-yl)-[1,4′-bipiperidin]-4-yl)phenyl)piperidine-2,6-dione-HCl salt]
< 10 | 96 | 97 | < 10 | CC(C)n1c2cc(N3CCC(N4CCC(c5ccc(NC6CCC(=O)NC6=O)cc5F)CC4)CC3)ccc2n2c3cccc(Cl)c3c(=O)nc12 (centres unmarked) [Compound 29, 3-((4-(1′-(4-chloro-7-isopropyl-5-oxo-5,7-dihydrobenzo[4,5]imidazo[1,2-a]quinazolin-9-yl)-[1,4′-bipiperidin]-4-yl)-3-fluorophenyl)amino)piperidine-2,6-dione-HCl salt]
< 10 | 100 | 99 | < 10 | O=C1CCC(Nc2ccc(C3CCN(C4CCN(c5ccc6c(c5)n(C5CCCC5)c5nc(=O)c7c(Br)cccc7n65)CC4)CC3)c(F)c2)C(=O)N1 (centres unmarked) [Compound 3, 3-((4-(1′-(4-bromo-7-cyclopentyl-5-oxo-5,7-dihydrobenzo[4,5]imidazo[1,2-a]quinazolin-9-yl)-[1,4′-bipiperidin]-4-yl)-3-fluorophenyl)amino)piperidine-2,6-dione]
< 10 | 90 | 97 | < 10 | O=C1CCC(c2ccc(C3CCN(C4CCN(c5ccc6c(c5)n(C5CCCC5)c5nc(=O)c7c(Br)cccc7n65)CC4)CC3)cc2)C(=O)N1 (centres unmarked) [Compound 4, 3-(4-(1′-(4-bromo-7-cyclopentyl-5-oxo-5,7-dihydrobenzo[4,5]imidazo[1,2-a]quinazolin-9-yl)-[1,4′-bipiperidin]-4-yl)phenyl)piperidine-2,6-dione]
< 10 | 100 | 98 | < 10 | O=C1CCC(N2Cc3cc(C4CCN(C5CCN(c6ccc7c(c6)n(C6CCCC6)c6nc(=O)c8c(Br)cccc8n76)CC5)CC4)ccc3C2=O)C(=O)N1 (centres unmarked) [Compound 1, 3-(5-(1′-(4-Bromo-7-cyclopentyl-5-oxo-5,7-dihydrobenzo[4,5]imidazo[1,2-a]quinazolin-9-yl)-[1,4′-bipiperidin]-4-yl)-1-oxoisoindolin-2-yl)piperidine-2,6-dione]
< 10 | 92 | 99 | < 10 | Nc1cccc2c1c(=O)nc1n(C3CCCC3)c3cc(N4CCC(N5CCC(c6ccc7c(c6)CN(C6CCC(=O)NC6=O)C7=O)CC5)CC4)ccc3n21 (centres unmarked) [Compound 8, 3-(5-(1′-(4-amino-7-cyclopentyl-5-oxo-5,7-dihydrobenzo[4,5]imidazo[1,2-a]quinazolin-9-yl)-[1,4′-bipiperidin]-4-yl)-1-oxoisoindolin-2-yl)piperidine-2,6-dione-HCl salt]
< 10 | 68 | 24 | < 10 | Cn1c2cc(N3CCC(N4CCC(c5ccc(C6CCC(=O)NC6=O)cc5)CC4)CC3)ccc2n2c3cccc(Br)c3c(=O)nc12 (centres unmarked) [Compound 17, 3-(4-(1′-(4-bromo-7-methyl-5-oxo-5,7-dihydrobenzo[4,5]imidazo[1,2-a]quinazolin-9-yl)-[1,4′-bipiperidin]-4-yl)phenyl)piperidine-2,6-dione]
